Experimental data published in paper PMC11206203, “Peptide macrocyclisation via intramolecular interception of visible-light-mediated desulfurisation” (Chemical Science, 2024).
Where a SMILES comes first, the peptide text is derived from it. [ ]: non-standard residue; d: D form. Nle = CCCC[C@H](N)C(=O)O

Test system: not listed separately
Test: C(sp3)-C(sp3) bond formation by visible-light-mediated Cys desulfurisation: alanyl radical adds to terminal alkene of allylglycine (or O-allyl Ser, pentenylGly, acrylamide); TCEP 50 eq (25 mM), (Ir[dF(CF3)ppy]2(dtbpy))PF6 1 mol%, 450 nm blue LED; unprotected peptides
Settings: from C=CC[C@H](NC(=O)[C@H](C)NC(=O)[C@H](CC(C)C)NC(=O)[C@H](Cc1c[nH]cn1)NC(=O)[C@H](CCCNC(=N)N)NC(=O)[C@H](C)NC(=O)[C@@H](NC(=O)[C@H](CC(N)=O)NC(=O)[C@H](CCCNC(=N)N)NC(=O)[C@@H](NC(=O)[C@@H](NC(=O)[C@H](CC(=O)O)NC(=O)[C@H](CCC(=O)O)NC(C)=O)[C@@H](C)CC)[C@@H](C)CC)[C@@H](C)CC)C(=O)N[C@H](C(=O)NCC(=O)N[C@@H](CC(=O)O)C(=O)N[C@@H](CS)C(=O)N[C@@H](CCCC)C(=O)N[C@@H](CC(=O)O)C(=O)N[C@@H](CCCNC(=N)N)C(=O)N[C@@H](CO)C(=O)N[C@H](C(=O)N[C@@H](Cc1c[nH]c2ccccc12)C(N)=O)[C@@H](C)CC)C(C)C; 17-membered ring; 6 M Gdn.HCl, 0.1 M Na2HPO4 pH 7.5-8.0 / MeCN 9:1; 0.5 mM; 25.0 °C
Work on `CCCC[C@H](NC(=O)[C@@H]1CCCC[C@H](NC(=O)[C@H](C)NC(=O)[C@H](CC(C)C)NC(=O)[C@H](Cc2c[nH]cn2)NC(=O)[C@H](CCCNC(=N)N)NC(=O)[C@H](C)NC(=O)[C@@H](NC(=O)[C@H](CC(N)=O)NC(=O)[C@H](CCCNC(=N)N)NC(=O)[C@@H](NC(=O)[C@@H](NC(=O)[C@H](CC(=O)O)NC(=O)[C@H](CCC(=O)O)NC(C)=O)[C@@H](C)CC)[C@@H](C)CC)[C@@H](C)CC)C(=O)N[C@@H](C(C)C)C(=O)NCC(=O)N[C@@H](CC(=O)O)C(=O)N1)C(=O)N[C@@H](CC(=O)O)C(=O)N[C@@H](CCCNC(=N)N)C(=O)N[C@@H](CO)C(=O)N[C@H](C(=O)N[C@@H](Cc1c[nH]c2ccccc12)C(N)=O)[C@@H](C)CC` [compound 59] yielded a ring closure, isolated yield of 49%.

Test system: not listed separately
Test: Same desulfurative C-C cyclisation as series A (TCEP, Ir photocatalyst, blue light) with N-terminal Cys and C-terminal allylglycine (reversed pentapeptides)
Settings: the molecule shown is the open-chain precursor; 17-membered ring; 6 M Gdn.HCl, 0.1 M Na2HPO4 pH 7.5-8.0 / MeCN 9:1; 0.5 mM; 25.0 °C
With `C=CC[C@H](NC(=O)[C@H](CCCNC(=N)N)NC(=O)[C@H](Cc1c[nH]c2ccccc12)NC(=O)[C@@H](NC(=O)[C@H](CS)NC(C)=O)[C@@H](C)CC)C(N)=O` [Ac-Cys-Ile-Trp-Arg-(allylGly)-NH2] the ring closure, conversion by HPLC was 7%.
`C=CC[C@H](NC(=O)[C@H](CCSC)NC(=O)[C@H](Cc1ccc(O)cc1)NC(=O)[C@H](CC(C)C)NC(=O)[C@H](CS)NC(C)=O)C(N)=O` [Ac-Cys-Leu-Tyr-Met-(allylGly)-NH2] showed a ring closure, conversion by HPLC of 21%.
`C=CC[C@H](NC(=O)[C@H](CCCCN)NC(=O)[C@@H]1CCCN1C(=O)[C@@H](NC(=O)[C@H](CS)NC(C)=O)[C@@H](C)O)C(N)=O` [Ac-Cys-Thr-Pro-Lys-(allylGly)-NH2] gave a ring closure, conversion by HPLC of 0%.
`C=CC[C@H](NC(=O)[C@H](CCC(N)=O)NC(=O)[C@H](Cc1c[nH]cn1)NC(=O)[C@@H](NC(=O)[C@H](CS)NC(C)=O)C(C)C)C(N)=O` [Ac-Cys-Val-His-Gln-(allylGly)-NH2] gave a ring closure, conversion by HPLC of 28%.
In the case of `C=CC[C@H](NC(=O)[C@H](CCC(=O)O)NC(=O)[C@H](Cc1ccccc1)NC(=O)[C@H](C)NC(=O)[C@@H](N)CS)C(N)=O` [H-Cys-Ala-Phe-Glu-(allylGly)-NH2], the ring closure, conversion by HPLC is reported as 25%.
Work on `C=CC[C@H](NC(=O)[C@H](CCCNC(=N)N)NC(=O)[C@H](Cc1c[nH]c2ccccc12)NC(=O)[C@@H](NC(=O)[C@@H](N)CS)[C@@H](C)CC)C(N)=O` [H-Cys-Ile-Trp-Arg-(allylGly)-NH2] yielded a ring closure, conversion by HPLC of 0%.
With `C=CC[C@H](NC(=O)[C@H](CCSC)NC(=O)[C@H](Cc1ccc(O)cc1)NC(=O)[C@H](CC(C)C)NC(=O)[C@@H](N)CS)C(N)=O` [H-Cys-Leu-Tyr-Met-(allylGly)-NH2] the ring closure, conversion by HPLC was 0%.
In the case of `C=CC[C@H](NC(=O)[C@H](CCCCN)NC(=O)[C@@H]1CCCN1C(=O)[C@@H](NC(=O)[C@@H](N)CS)[C@@H](C)O)C(N)=O` [H-Cys-Thr-Pro-Lys-(allylGly)-NH2], the ring closure, conversion by HPLC is reported as 0%.
In the case of `C=CC[C@H](NC(=O)[C@H](CCC(N)=O)NC(=O)[C@H](Cc1c[nH]cn1)NC(=O)[C@@H](NC(=O)[C@@H](N)CS)C(C)C)C(N)=O` [H-Cys-Val-His-Gln-(allylGly)-NH2], the ring closure, conversion by HPLC is reported as 0%.

Target: T1, MCL-1 (Homo sapiens, UniProt Q07820)
T1 construct: MCL-1 (residues 172-327) was expressed and purified as described previously; made in house
T1 sequence (Q07820 172-327): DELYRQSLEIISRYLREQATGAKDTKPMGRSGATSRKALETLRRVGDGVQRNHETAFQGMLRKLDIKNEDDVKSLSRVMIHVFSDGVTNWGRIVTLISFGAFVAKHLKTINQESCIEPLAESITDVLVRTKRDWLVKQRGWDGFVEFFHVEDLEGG
Test: Competitive inhibition, fluorescence anisotropy, MCL-1 and fluorophore-labelled WT BH3 sequence
Type: binding
Settings: competition FA; MCL-1 (residues 172-327), tracer FAM-Ahx-BID / fluorophore-labelled WT BH3 sequence; 20 mM Tris, 150 mM NaCl, pH 7.6; 384-well plates, tested in triplicate; excitation 480 nm, emission 535 nm; fit to sigmoidal logistic model; Fig. S160; read-out: inhibitory potency (competitive inhibition, fluorescence anisotropy)
From the text: Finally, to explore internal peptide ‘stapling’ using this strategy, we selected a region of a BH3 protein – BID80–102, that binds MCL-1 to regulate apoptosis.[53,72] This PPI is known to play a significant role in cancer development and progression.[53,72] Three sequences (54–56) were synthesised with alGly and Cys positioned to afford either an internal i, i + 4 staple (57, 59; Fig. 5 and ESI ^†) or i, i + 7 staple (58; Fig. 5 and ESI ^†), fixing the length of either one or two full helical turns of the peptide, respectively. In addition, peptide macrocycle 26 is a head-to-tail macrocycle representing the i, i + 4 binding region of these longer sequences. The staple for all three peptides was successfully formed under the standard conditions, albeit in lower yield than the N- to C-terminal cyclisations previously explored (57–59). The alpha-helical structure of peptide 59 was assessed via CD spectroscopy. […]
All samples were prepared in 20mM Tris, 150 mM NaCl, pH 7.6 solutions. All assays were performed using 384 -well plates (Greiner Bio -one, UK) and tested in triplicate using an EnVisionTM 2103 MultiLabel plate reader (Perkin Elmer; Waltham, MA, USA). […] Measured data were processed and analysed as previously described. […]
Compound `CCCC[C@H](NC(=O)[C@H](CO)NC(=O)[C@H](CC(=O)O)NC(=O)CNC(=O)[C@@H](NC(=O)[C@H](CCC(N)=O)NC(=O)[C@H](C)NC(=O)[C@H](CC(C)C)NC(=O)[C@H](Cc1c[nH]cn1)NC(=O)[C@H](CCCNC(=N)N)NC(=O)[C@H](C)NC(=O)[C@@H](NC(=O)[C@H](CC(N)=O)NC(=O)[C@H](CCCNC(=N)N)NC(=O)[C@@H](NC(=O)[C@@H](NC(=O)[C@H](CC(=O)O)NC(=O)[C@H](CCC(=O)O)NC(C)=O)[C@@H](C)CC)[C@@H](C)CC)[C@@H](C)CC)C(C)C)C(=O)N[C@@H](CC(=O)O)C(=O)N[C@@H](CCCNC(=N)N)C(=O)N[C@@H](CO)C(=O)N[C@H](C(=O)N[C@@H](Cc1c[nH]c2ccccc12)C(N)=O)[C@@H](C)CC` [BID-wt, reference compound] (Ac-EDIIRNIARHLAQVGDS[Nle]DRSIW-NH2) has an IC50 of 7.4 ± 0.9 µM.
`CCCC[C@H](NC(=O)[C@@H]1CCCC[C@H](NC(=O)[C@H](C)NC(=O)[C@H](CC(C)C)NC(=O)[C@H](Cc2c[nH]cn2)NC(=O)[C@H](CCCNC(=N)N)NC(=O)[C@H](C)NC(=O)[C@@H](NC(=O)[C@H](CC(N)=O)NC(=O)[C@H](CCCNC(=N)N)NC(=O)[C@@H](NC(=O)[C@@H](NC(=O)[C@H](CC(=O)O)NC(=O)[C@H](CCC(=O)O)NC(C)=O)[C@@H](C)CC)[C@@H](C)CC)[C@@H](C)CC)C(=O)N[C@@H](C(C)C)C(=O)NCC(=O)N[C@@H](CC(=O)O)C(=O)N1)C(=O)N[C@@H](CC(=O)O)C(=O)N[C@@H](CCCNC(=N)N)C(=O)N[C@@H](CO)C(=O)N[C@H](C(=O)N[C@@H](Cc1c[nH]c2ccccc12)C(N)=O)[C@@H](C)CC` [compound 59] gave an IC50 of 26 ± 4 µM.

Test system: not listed separately
Test: CD spectroscopy, alpha-helical structure
Type: physicochemical
Settings: alpha-helical content by CD; Fig. S159
In the case of “Ac-EDIIRNIARHLA(alG)VGDCNLDRSIW-NH2 [compound 56, starting peptide carrying the allyl glycine residue]”, the “helicity (CD spectroscopy)” value is reported as 38%.
